Source: US20120283303A1, “USE OF N-AMINOIMIDAZOLE CYTOPROTECTIVE COMPOUNDS FOR TREATING CELL DEATH AND/OR GSK-3 MEDIATED DISEASES” (K.U.LEUVEN RESEARCH AND DEVELOPMENT, priority 2006, published 2012)
Converted amounts (≈) assume the structure as drawn. Like-named read-outs stand apart in the source and are kept apart here.

Legend:
M17-TAU P301L cells = assay: TAU cytotoxicity (LDH leakage) in retinoic acid incubated M17-TAU P301L cells; type: cell-based, human; conditions: reduction of LDH activity of retinoic acid incubated M17-TAU P301L cells, 7 days
Excerpt: An TAU expression plasmid was constructed by sub-cloning the cDNA of human TAU-P301L (encoding for TAU with proline 301 substituted by a leucine residue) into mammalian expression vector pcDNA3.1 resulting in plasmid pcDNA3.1-TAU P301L. Plasmids pcDNA3.1 and pcDNA3.1-TAU P301L were transfected to human neuroblastoma cells ([…]; ATCC No. CRL-2267) and independent clonal lines with the plasmids stably integrated into the genome were selected. […] Expression of the TAU P301L genes in the cell lines was confirmed by Western analysis.
In degenerated or dead cells, lactate dehydrogenase (LDH) is leaked out of the cells into the extracellular environment due to a loss of plasma-membrane integrity. This principle was used to determine cytotoxicity by quantifying the level of leaked LDH into the growth medium.
The detailed method for determining TAU cytotoxicity was as follows: From appropriate precultures of M17-3.1 and M17-TAU(P301L) cells were seeded at 2500 cells/cm2 in Optimem Reduced Serum without phenol red (Gibco, Cat. 31985-047) supplemented with 1% fetal calf serum, 1 mM sodium pyruvate, 1× non-essential amino acids, 500 μg/ml G418 0.5× antibiotic/antimycotic. After 3 hours of incubation at 37° C./5% CO2 1 volume of Optimem Reduced Serum (same as described above; except without fetal calf serum) supplemented with 2.5 μM retinoic acid (RA) was added. The cells were further incubated for 7 days. Subsequently, LDH activity was determined using Promega Cytotox 96 Non-Radioactive cytotoxicity assay, (Cat. G1780) according the supplier's instructions.
The M17-TAU P301L cell line made it possible to assess the ability of the compounds of this invention to counteract TAU cytotoxicity. […] Potency of the relevant compounds was determined by testing them at different concentrations ranging from non-effective (thus at a relatively low concentration) to an effective concentration for their ability to reduce LDH activity of retinoic acid incubated M17-TAU P301L cells.

GSK-3α = biological target: T1, GSK-3α (Homo sapiens, UniProt P49840); assay: Radiometric kinase activity assay; type: biochemical; conditions: same experimental set-up as Table 1
T1 construct: purchased Upstate Biotechnology
T1 sequence (P49840 whole entry): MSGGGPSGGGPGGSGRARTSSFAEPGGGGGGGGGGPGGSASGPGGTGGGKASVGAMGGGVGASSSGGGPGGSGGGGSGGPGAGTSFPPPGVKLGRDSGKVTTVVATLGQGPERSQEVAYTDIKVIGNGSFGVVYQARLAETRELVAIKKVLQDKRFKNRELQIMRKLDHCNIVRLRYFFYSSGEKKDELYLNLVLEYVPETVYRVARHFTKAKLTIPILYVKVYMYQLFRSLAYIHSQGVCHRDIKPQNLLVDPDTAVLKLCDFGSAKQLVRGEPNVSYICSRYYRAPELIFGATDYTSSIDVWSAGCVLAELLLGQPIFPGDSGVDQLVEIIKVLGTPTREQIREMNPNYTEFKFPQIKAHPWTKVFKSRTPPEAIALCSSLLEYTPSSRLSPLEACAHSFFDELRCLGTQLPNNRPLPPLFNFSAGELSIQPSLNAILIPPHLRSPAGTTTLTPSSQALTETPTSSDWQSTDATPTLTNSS
Experimental: (§1) GSK-3 were assayed for their ability to phosphorylate the appropriate peptide/protein substrate in the presence of 5 μg/ml NR-818 and 10 μM ATP. Using the direct radiometric approach, kinase activities were determined and expressed as % activity compared to the untreated control (Upstate Biotechnology, Lake Placid, N.Y.). Activities are given as the mean of duplicate determinations relative to control incubations in which the inhibitor was substituted with DMSO. In the following table 1 providing results for NR818, the following abbreviations are used: • CDK, cyclin-dependent kinase; • CK, casein kinase; • eEF-2K, eukaryotic elongation factor-2 kinase; • JNK, c-Jun N-terminal kinase; • MAPK, mitogen-activated protein kinase; • PKC, protein kinase C; and • PI 3-kinase, phosphatidylinositol 3-kinase.
(§2) By using this experimental set-up, the inhibiting activity of NR953 on GSK-3 is also tested.

GSK-3β = biological target: T2, GSK-3β (Homo sapiens, UniProt P49841); assay: Radiometric kinase activity assay; type: biochemical; conditions: same experimental set-up as Table 1
T2 construct: purchased Upstate Biotechnology
T2 sequence (P49841 whole entry): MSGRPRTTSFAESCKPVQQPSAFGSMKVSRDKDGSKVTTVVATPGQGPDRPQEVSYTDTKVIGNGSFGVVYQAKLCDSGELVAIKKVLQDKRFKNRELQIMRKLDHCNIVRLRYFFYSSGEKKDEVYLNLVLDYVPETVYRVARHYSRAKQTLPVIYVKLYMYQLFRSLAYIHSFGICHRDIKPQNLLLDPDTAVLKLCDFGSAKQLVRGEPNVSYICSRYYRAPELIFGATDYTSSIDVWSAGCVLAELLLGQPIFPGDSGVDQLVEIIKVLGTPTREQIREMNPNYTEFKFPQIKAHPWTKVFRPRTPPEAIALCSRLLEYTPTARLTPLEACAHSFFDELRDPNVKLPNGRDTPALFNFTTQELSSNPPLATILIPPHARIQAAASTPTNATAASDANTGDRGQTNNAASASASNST
Experimental: as §1, §2

[1] = test system: Peripheral blood mononuclear cells (PBMCs); assay: PBMC survival (viable cell count, trypan blue exclusion); type: cell-based, human; conditions: NAIM alone, compared to control conditions
Experimental: Peripheral blood mononuclear cells (PBMCs) from healthy donors were isolated by density centrifugation (Lymphoprep; Nycomed Pharma, AS Diagnostics, Oslo, Norway). For the “non-stimulated” conditions (NS) the cells were cultivated at a density of 1,750,000 cells per ml in RPMI-1640 supplemented with 2 mM L-glutamine, 15% FCS and 0.1% NaHCO3 for 3 days. […] At day 0 of the experiment, the NS and activated cells (PHA-stimulated blasts) were washed with PBS and were pelleted by centrifugation. […] The number of viable cells was counted based on the trypan blue exclusion method. The evolution of the number of cells was followed over a period of approximately 2 weeks.

[2] = Homo sapiens, 168 h, read-out: IC50

SMILES | IC50 (M17-TAU P301L cells; [2]) [µg/mL] | other results
Cc1ncn(Nc2cccc(Cl)c2)c1-c1cccc(Br)c1 [HER/LI412 = NR779GLUCOSE] |  | IC50 (M17-TAU P301L cells): 0.216 µg/mL (≈ 0.596 µM)
Cc1[nH]c(=S)n(Nc2ccccc2Cl)c1-c1ccccc1 [HER/NR723] | 0.024 (≈ 0.076 µM) | 
Cc1[nH]c(=S)n(Nc2cccc(Cl)c2)c1-c1ccccc1 [HER/NR724] | 0.34 (≈ 1.08 µM) | 
Cc1[nH]c(=S)n(Nc2ccc(Cl)cc2)c1-c1ccccc1 [HER/NR725] | 0.176 (≈ 0.557 µM) | 
Cc1ncn(Nc2cccc(Cl)c2)c1-c1ccccc1 [HER/NR746] | 0.081 (≈ 0.285 µM) | 
CSc1nc(C)c(-c2ccccc2)n1Nc1cccc(Cl)c1 [HER/NR747] | 0.256 (≈ 0.776 µM) | 
Cc1cccc(Nn2c(SCc3ccccc3)nc(C)c2-c2ccccc2)c1 [HER/NR748] | 0.325 (≈ 0.843 µM) | 
Cc1[nH]c(=S)n(Nc2cccc(Cl)c2)c1-c1cccc(Br)c1 [HER/NR759] | 0.174 (≈ 0.441 µM) | 
Cc1[nH]c(=S)n(Nc2cccc(Cl)c2)c1-c1ccc(Br)cc1 [HER/NR760] | 0.12 (≈ 0.304 µM) | 
Cc1[nH]c(=S)n(Nc2cccc(Cl)c2)c1-c1cccc(Cl)c1 [HER/NR761] | 0.11 (≈ 0.314 µM) | 
Cc1[nH]c(=S)n(Nc2cccc(Cl)c2)c1-c1ccc(Cl)cc1 [HER/NR762] | 0.061 (≈ 0.174 µM) | 
COc1ccc(-c2c(C)[nH]c(=S)n2Nc2cccc(Cl)c2)cc1 [HER/NR763] | 0.456 (≈ 1.32 µM) | 
Cc1[nH]c(=S)n(Nc2cccc(Cl)c2)c1-c1ccc(Cl)cc1Cl [HER/NR766] | 0.192 (≈ 0.499 µM) | 
Cc1ccc(Nn2c(-c3ccccc3)c(C)[nH]c2=S)cc1C [HER/NR767] | 0.146 (≈ 0.472 µM) | 
Cc1[nH]c(=S)n(Nc2cccc(Br)c2)c1-c1ccccc1 [HER/NR768] | 0.44 (≈ 1.22 µM) | 
Cc1[nH]c(=S)n(Nc2cc(Cl)ccc2Cl)c1-c1ccccc1 [HER/NR769] | 0.434 (≈ 1.24 µM) | 
Cc1[nH]c(=S)n(Nc2cccc(F)c2)c1-c1ccccc1 [HER/NR770] | 1.46 (≈ 4.88 µM) | 
Cc1ccc(Nn2c(-c3ccccc3)c(C)[nH]c2=S)cc1Cl [HER/NR771] | 0.293 (≈ 0.888 µM) | 
Cc1[nH]c(=S)n(Nc2ccccc2)c1-c1ccccc1 [HER/NR772] | 0.568 (≈ 2.02 µM) | 
Cc1[nH]c(=S)n(Nc2ccc(F)cc2)c1-c1ccccc1 [HER/NR773] | 0.426 (≈ 1.42 µM) | 
Cc1[nH]c(=S)n(Nc2cccc([N+](=O)[O-])c2)c1-c1ccccc1 [HER/NR774] | 2.13 (≈ 6.53 µM) | 
Cc1cccc(Nn2c(-c3ccccc3)c(C)[nH]c2=S)c1 [HER/NR775] | 0.321 (≈ 1.09 µM) | 
Cc1ncn(Nc2ccccc2)c1-c1ccccc1 [HER/NR776] | 0.455 (≈ 1.82 µM) | 
Cc1ncn(Nc2cccc(Cl)c2)c1-c1cccc(Cl)c1 [HER/NR777] | 0.107 (≈ 0.336 µM) | 
Cc1ncn(Nc2cccc(Cl)c2)c1-c1cccc(Br)c1 [HER/NR779] |  | IC50 (M17-TAU P301L cells): 0.022 µg/mL (≈ 0.0607 µM)
Cc1ncn(Nc2ccc(F)cc2)c1-c1ccccc1 [HER/NR786] | 0.191 (≈ 0.715 µM) | 
Cc1cccc(Nn2c(-c3ccccc3)c(C(C)C)[nH]c2=S)c1 [HER/NR787] | 0.4 (≈ 1.24 µM) | 
CCc1[nH]c(=S)n(Nc2cccc(C)c2)c1-c1ccccc1 [HER/NR788] | 0.341 (≈ 1.1 µM) | 

SMILES | IC50 (M17-TAU P301L cells; [2]) [µg/mL] | other results
CCc1[nH]c(=S)n(Nc2cccc(Cl)c2)c1-c1ccccc1 [HER/NR789] | 0.184 (≈ 0.558 µM) | 
Cc1cccc(Nn2cnc(C)c2-c2ccccc2)c1 [HER/NR790] | 0.059 (≈ 0.224 µM) | 
CCc1ncn(Nc2cccc(C)c2)c1-c1ccccc1 [HER/NR791] | 0.046 (≈ 0.166 µM) | 
Cc1cc(C)cc(Nn2c(-c3ccccc3)c(C)[nH]c2=S)c1 [HER/NR798] | 0.496 (≈ 1.6 µM) | 
COc1cccc(Nn2c(-c3ccccc3)c(C)[nH]c2=S)c1 [HER/NR801] | 1.35 (≈ 4.34 µM) | 
COc1cccc(Nn2cnc(C)c2-c2ccccc2)c1 [HER/NR802] | 1.34 (≈ 4.79 µM) | 
Cc1[nH]c(=S)n(Nc2cccc(Cl)c2)c1-c1cccc(C#N)c1 [HER/NR803] | 0.086 (≈ 0.252 µM) | 
Cc1cccc(Nn2c(-c3cccc(C#N)c3)c(C)[nH]c2=S)c1 [HER/NR804] | 0.154 (≈ 0.481 µM) | 
Cc1ncn(Nc2cccc(Cl)c2)c1-c1cccc(C#N)c1 [HER/NR805] | 0.09 (≈ 0.291 µM) | 
Cc1cccc(Nn2cnc(C)c2-c2cccc(C#N)c2)c1 [HER/NR806] | 0.141 (≈ 0.489 µM) | 
Cc1cc(C)cc(Nn2cnc(C)c2-c2ccccc2)c1 [HER/NR808] | 0.023 (≈ 0.0829 µM) | 
Cc1cccc(Nn2cnc(C)c2-c2cccc(C(N)=O)c2)c1 [HER/NR809] | 0.33 (≈ 1.08 µM) | 
Cc1[nH]c(=S)n(Nc2cccc(Cl)c2)c1-c1cccc(C(=O)O)c1 [HER/NR810] | 1 (≈ 2.79 µM) | 
Cc1cccc(Nn2c(-c3cccc(C(=O)O)c3)c(C)[nH]c2=S)c1 [HER/NR811] | 1.9 (≈ 5.6 µM) | 
COC(=O)c1cccc(-c2c(C)[nH]c(=S)n2Nc2cccc(Cl)c2)c1 [HER/NR812] | 0.328 (≈ 0.877 µM) | 
Cc1[nH]c(=S)n(Nc2cccc(Cl)c2)c1-c1cccc(C(N)=O)c1 [HER/NR813] | 0.18 (≈ 0.502 µM) | 
COC(=O)c1cccc(-c2c(C)ncn2Nc2cccc(Cl)c2)c1 [HER/NR814] | 0.172 (≈ 0.503 µM) | 
Cc1ncn(Nc2cccc(Cl)c2)c1-c1cccc(C(=O)O)c1 [HER/NR815] | 0.805 (≈ 2.46 µM) | 
CCc1ccc(Nn2c(-c3ccccc3)c(C)[nH]c2=S)cc1 [HER/NR861] | 0.106 (≈ 0.343 µM) | 
CSc1ccc(Nn2c(-c3ccccc3)c(C)[nH]c2=S)cc1 [HER/NR862] | 0.027 (≈ 0.0824 µM) | 
Cc1c(-c2ccccc2)n(N(C)c2ccccc2)c(=S)n1C [HER/NR863] | 3.85 (≈ 12.4 µM) | 
Cc1ccc(Nn2cnc(C)c2-c2ccccc2)cc1Cl [HER/NR864] | 0.057 (≈ 0.191 µM) | 
Cc1ncn(Nc2cccc(Cl)c2)c1-c1ccc(Br)cc1 [HER/NR865] | 0.071 (≈ 0.196 µM) | 
Cc1[nH]c(=S)n(N(C)c2ccccc2)c1-c1ccccc1 [HER/NR866] | 0.195 (≈ 0.66 µM) | 
Cc1[nH]c(=S)n(Nc2cccc3ccccc23)c1-c1cccc(Br)c1 [HER/NR914] | 0.045 (≈ 0.11 µM) | 
Cc1[nH]c(=S)n(Nc2cccc3ccccc23)c1-c1cccc(Cl)c1 [HER/NR915] | 0.037 (≈ 0.101 µM) | 
Cc1nc(SC(O)C(O)C(O)C(O)C(O)CO)n(Nc2cccc3ccccc23)c1-c1ccccc1 (stereo not shown) [HER/NR953] | 0.052 (≈ 0.102 µM) | IC50 on GSK-3α (GSK-3α): low micro-molar concentrations; IC50 on GSK-3β (GSK-3β): low micro-molar concentrations; PBMC cell viability, NAIM as such [1]: did not affect the cell viability
